Values quoted from earlier work in publication PMC7645643 (Engineering in Life Sciences, 2020).

For Enfuvirtide [T-20], which in vivo half-life is on record?
The in vivo half-life was “approximately 4 h”.
